Experimental data from patent US20250171432A1, “COMPOUNDS AND METHODS OF USE” (Tango Therapeutics, Inc., priority 2022, published 2025).

What was measured:
Type in all cases: cell-based
[1] = system: HAP1 MTAP-deleted cell line; assay: Viability assay (CellTiter-Glo), HAP1 MTAP-deleted; conditions: Homo sapiens, 168 h, HAP1 MTAP-deleted cells, 7 days
Description: All test compounds are maintained as 10 mM DMSO stocks.
On Day 0, MTAP-intact and MTAP-deleted cells are seeded in a 96-well plate, and incubated in a humidified, 5 or 10% CO2 tissue culture incubator for 16-24 hours. On Day 1, the test compounds are dispensed to wells at defined concentrations using a Tecan D300e digital dispenser (n=3), and the volume of DMSO is normalized to highest class volume (0.2%). The compound-treated plates are incubated for 7 days in a humidified, 5 or 10% CO2 tissue culture incubator.
On Day 7, the plates are removed from the tissue culture incubator and allowed to equilibrate to room temperature. Then either a ½% volume CellTiter-Glo Luminescent Cell Viability Assay reagent (Promega G7572) is added to each well, or the media is removed from every well and a 1:3 dilution of CellTiter-Glo 2.0 Cell Viability Assay reagent (Promega G9241) in 1×PBS is added. Ten minutes after addition, the luminescent signal is detected by an Envision plate reader. The data are plotted as % of the DMSO control wells for the MTAP-intact and the MTAP-deleted cell lines independently, and fitted to the 4-parameter logistic (4-PL) Hill equation with maximal effect constrained to 0. The fit was performed using GraphPad Prism or the default IC50 fitting procedure in Dotmatics Studies 5.4 as part of a customized data analysis protocol.

[2] = system: SDMA (PRMT5 activity) in HAP1 MTAP-intact cell line; assay: SDMA in-cell western assay, HAP1 MTAP-intact; conditions: SDMA in-cell western, HAP1 MTAP-intact cells, 24 hours compound incubation
Description: (§1) The SAM-cooperative PRMT5 inhibitor, GSK3326595, was sourced from SelleckChem and maintained as a 10 mM DMSO stock. All test compounds are maintained as 10 mM DMSO stocks
(§2) On Day 0, MTAP-intact or MTAP-deleted cells are seeded in a 384-well plate, and incubated in a humidified, 5% CO2 tissue culture incubator for 16-24 hours. On Day 1, the test compounds are dispensed to wells at defined concentrations using a Tecan D300e digital dispenser (n=4), and the volume of DMSO is normalized to highest class volume. Each plate includes wells dosed with defined concentrations of GSK33226595 as a plate control. The compounds are incubated with cells for 24 hours in a humidified, 5% CO2 tissue culture incubator.
(§3) On Day 2, the compound-treated cells are fixed with a final concentration of 4% formaldehyde. The cells are then washed/permeabilized with 1×PBS+0.1% Triton X-100, and then blocked with 5% goat serum/1×TBS.
(§4) The cells are washed with 1×PBS+0.1% Triton X-100, and then washed again with ddH20. The plates are then imaged using a NIR fluorescent imager (LiCor Odyssey).
(§5) For data analysis, the SDMA signal is normalized to the DRAQ5 signal. Assay background is determined by the signal from wells treated with 1 μM GSK3326595, and subtracted from every well. The data are plotted as % of the DMSO control wells for the MTAP-intact and the MTAP-deleted cell lines independently, and fitted to the 4-parameter logistic (4-PL) Hill equation with maximal effect constrained to 0. The fit was performed using GraphPad Prism or the default IC50 fitting procedure in Dotmatics Studies 5.4 as part of a customized data analysis protocol.

[3] = system: SDMA (PRMT5 activity) in HAP1 MTAP-deleted cell line; assay: SDMA in-cell western assay, HAP1 MTAP-deleted; conditions: for IC50 / IC90: Homo sapiens, SDMA in-cell western, HAP1 MTAP-deleted cells, 24 hours compound incubation; for Hap1 MTAP intact/deleted ratio: ratio of SDMA IC50 in HAP1 MTAP-intact to HAP1 MTAP-deleted cell line
Description: as §1, §2, §3, §4, §5

IC50 ([2]; Homo sapiens, HAP1, 24 h)	IC50 [3]	IC90 [3]	IC50 [2]	Compound	IC50 [1]	Hap1 MTAP intact/deleted ratio [3]	IC50 ([2]; Homo sapiens)
> 50 nM	< 5 nM	< 75 nM	–	CCc1cc(NC(=O)C(=O)N2C[C@@H](C)CC[C@@H]2c2ccc3cn([C@H]4C[C@H](C)CN(C)C4)nc3c2)cnc1N (relative stereo) [Compound 85, N-(6-amino-5-ethylpyridin-3-yl)-2-((2R,5S)-2-(2-(1,5-dimethylpiperidin-3-yl)-2H-indazol-6-yl)-5-methylpiperidin-1-yl)-2-oxoacetamide]	< 100 nM	A (“A” indicates an IC50 ratio greater than or equal to 30 fold)	–
> 50 nM	< 5 nM	< 75 nM	–	COc1ncc(NC(=O)C(=O)N2C[C@@H](C)CC[C@@H]2c2ccc3sc(CC(C)N4CCCC4)nc3c2)cc1C(N)=O (mixture of isomers) [Compound 57, 2-methoxy-5-(2-((2R,5S)-5-methyl-2-(2-(2-(pyrrolidin-1-yl)propyl)benzo[d]thiazol-5-yl)piperidin-1-yl)-2-oxoacetamido)nicotinamide]	< 100 nM	A (“A” indicates an IC50 ratio greater than or equal to 30 fold)	–
> 50 nM	< 5 nM	< 75 nM	–	COc1ncc(NC(=O)C(=O)N2C[C@@H](C)CC[C@@H]2c2ccc3cn([C@H]4CCN(C)C4)nc3c2)cc1C(N)=O [Compound 103, 2-methoxy-5-(2-((2R,5S)-5-methyl-2-(2-((S)-1-methylpyrrolidin-3-yl)-2H-indazol-6-yl)piperidin-1-yl)-2-oxoacetamido)nicotinamide]	< 100 nM	A (“A” indicates an IC50 ratio greater than or equal to 30 fold)	–
> 50 nM	5 to 50 nM	75 to 125 nM	–	COc1ncc(NC(=O)C(=O)N2C[C@@H](C)CC[C@@H]2c2cccc(OC[C@H](C)N(C)C)c2)cc1C(N)=O [Compound 37, 5-(2-((2R,5S)-2-(3-((S)-2-(dimethylamino)propoxy)phenyl)-5-methylpiperidin-1-yl)-2-oxoacetamido)-2-methoxynicotinamide]	< 100 nM	A (“A” indicates an IC50 ratio greater than or equal to 30 fold)	–
5 to 50 nM	< 5 nM	< 75 nM	–	CCc1cc(NC(=O)C(=O)N2C[C@@H](C)CC[C@@H]2c2ccc3nn([C@@H]4CCN(C)C(C)(C)C4)cc3c2)cnc1N [Compound 108]	< 100 nM	B (“B” indicates an IC50 ratio greater than or equal to 15 fold but lower than 30 fold)	–
–	< 5 nM	< 75 nM	> 50 nM	CCc1cc(NC(=O)C(=O)N2C[C@@H](C)CC[C@@H]2c2ccc3cn(C4CN(C)CC(C)(C)C4)nc3c2)cnc1N (single isomer, unassigned) [Compound 78]	< 100 nM	B (“B” indicates an IC50 ratio greater than or equal to 15 fold but lower than 30 fold)	–
> 50 nM	5 to 50 nM	< 75 nM	–	CCc1cc(NC(=O)C(=O)N2C[C@@H](C)CC[C@@H]2c2ccc3sc([C@H]4C[C@H](C)CN(C)C4)nc3c2)cnc1N (single isomer, unassigned) [Compound 75]	< 100 nM	B (“B” indicates an IC50 ratio greater than or equal to 15 fold but lower than 30 fold)	–
5 to 50 nM	< 5 nM	< 75 nM	–	CCc1cc(NC(=O)C(=O)N2C[C@@H](C)CC[C@@H]2c2ccc3sc(CC4(C)CCN(C)CC4)nc3c2)cnc1N [Compound 6, N-(6-amino-5-ethylpyridin-3-yl)-2-((2R,5S)-2-(2-((1,4-dimethylpiperidin-4-yl)methyl)benzo[d]thiazol-5-yl)-5-methylpiperidin-1-yl)-2-oxoacetamide]	< 100 nM	B (“B” indicates an IC50 ratio greater than or equal to 15 fold but lower than 30 fold)	–
> 50 nM	< 5 nM	< 75 nM	–	COc1ncc(NC(=O)C(=O)N2C[C@@H](C)CC[C@@H]2c2ccc3sc([C@H]4C[C@@H]5CN(C)C[C@@H]5C4)nc3c2)cc1C(N)=O (single isomer, unassigned) [Compound 67]	< 100 nM	A (“A” indicates an IC50 ratio greater than or equal to 30 fold)	–
> 50 nM	5 to 50 nM	> 125 nM	–	COc1ncc(NC(=O)C(=O)N2C[C@@H](C)CC[C@@H]2c2cccc(OC[C@@H]3CCCN3C)c2)cc1C(N)=O [Compound 26, 2-methoxy-5-(2-((2R,5S)-5-methyl-2-(3-(((S)-1-methylpyrrolidin-2-yl)methoxy)phenyl)piperidin-1-yl)-2-oxoacetamido)nicotinamide]	100 to 1000 nM	A (“A” indicates an IC50 ratio greater than or equal to 30 fold)	–
> 50 nM	< 5 nM	< 75 nM	–	COc1ncc(NC(=O)C(=O)N2C[C@@H](C)CC[C@@H]2c2ccc3sc(C4=CCN(C)CC4)nc3c2)cc1C(N)=O [Compound 83, 2-methoxy-5-(2-((2R,5S)-5-methyl-2-(2-(1-methyl-1,2,3,6-tetrahydropyridin-4-yl)benzo[d]thiazol-5-yl)piperidin-1-yl)-2-oxoacetamido)nicotinamide]	< 100 nM	A (“A” indicates an IC50 ratio greater than or equal to 30 fold)	–
5 to 50 nM	< 5 nM	< 75 nM	–	CCc1cc(NC(=O)C(=O)N2C[C@@H](C)CC[C@@H]2c2ccc3sc([C@@H]4C[C@@H](C)CN(C)C4)nc3c2)cnc1N (relative stereo) [Compound 23, N-(6-amino-5-ethylpyridin-3-yl)-2-((2R,5S)-2-(2-(1,5-dimethylpiperidin-3-yl)benzo[d]thiazol-5-yl)-5-methylpiperidin-1-yl)-2-oxoacetamide]	< 100 nM	B (“B” indicates an IC50 ratio greater than or equal to 15 fold but lower than 30 fold)	–
5 to 50 nM	< 5 nM	< 75 nM	–	CCc1cc(NC(=O)C(=O)N2C[C@@H](C)CC[C@@H]2c2ccc3cn([C@@H]4CCN(C)C[C@@H]4C)nc3c2)cnc1N [Compound 127]	< 100 nM	C (“C” indicates an IC50 ratio of less than 15 fold)	–

Compound	IC50 ([2]; Homo sapiens, HAP1, 24 h)	IC50 [3]	IC90 [3]	IC50 [2]	IC50 [1]	Hap1 MTAP intact/deleted ratio [3]	IC50 ([2]; Homo sapiens)
CCc1cc(NC(=O)C(=O)N2C[C@@H](C)CC[C@@H]2c2ccc3c(c2)OC2(CCN(C)CC2)O3)cnc1N [Compound 92, N-(6-amino-5-ethylpyridin-3-yl)-2-((2R,5S)-5-methyl-2-(1′-methylspiro[benzo[d][1,3]dioxole-2,4′-piperidin]-5-yl)piperidin-1-yl)-2-oxoacetamide]	–	5 to 50 nM	75 to 125 nM	–	< 100 nM	A (“A” indicates an IC50 ratio greater than or equal to 30 fold)	> 50 nM
CCc1cc(NC(=O)C(=O)N2C[C@@H](C)CC[C@@H]2c2ccc3sc([C@@H]4C[C@@H]5CC(F)(F)C[C@H](C4)N5C)nc3c2)cnc1N [Compound 91, N-(6-amino-5-ethylpyridin-3-yl)-2-((2R,5S)-2-(2-(7,7-difluoro-9-methyl-9-azabicyclo[3.3.1]nonan-3-yl)benzo[d]thiazol-5-yl)-5-methylpiperidin-1-yl)-2-oxoacetamide]	–	< 5 nM	< 75 nM	–	< 100 nM	A (“A” indicates an IC50 ratio greater than or equal to 30 fold)	> 50 nM
